Measured values reported in patent publication US20230279025A1, “KRAS G12D INHIBITORS” (Mirati Therapeutics, Inc., priority 2020, published 2023).

How the values were obtained:
KRas G12D [1] = target: T1, KRas G12D (Homo sapiens (Human), UniProt P01116, G12D); assay: KRas G12D Binding Assay (TR-FRET displacement of Cy5 labelled tracer); details: GDP-loaded KRAS G12D (amino acids 1:169), 60 minute incubation at 22° C.
Procedure: After a 60 minute incubation at 22° C., the reaction was measured using a PerkinElmer EnVision multimode plate reader via TR-FRET dual wavelength detection, and the percent of control (POC) calculated using a ratiometric emission factor. […] The POC values were fit to a 4-parameter logistic curve and the IC50 value was determined as the concentration where the curve crosses 50 POC.
ND stands for “not determined.”
Target sequence in this assay (P01116 other isoform, or with tags, fused parts or gaps G12D): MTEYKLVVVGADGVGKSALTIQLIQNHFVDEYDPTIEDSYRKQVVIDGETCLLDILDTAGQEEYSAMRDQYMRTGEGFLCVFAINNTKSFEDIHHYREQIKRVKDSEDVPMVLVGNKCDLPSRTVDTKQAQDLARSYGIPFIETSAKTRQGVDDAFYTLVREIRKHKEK

KRas G12D [2] = target: T1, KRas G12D; assay: KRas G12D Surface Plasmon Resonance (SPR) Binding Assay; details: Biacore T200, immobilized biotinylated KRAS protein, 1:1 binding model
Target sequence in this assay (P01116-2 other isoform, or with tags, fused parts or gaps G12D): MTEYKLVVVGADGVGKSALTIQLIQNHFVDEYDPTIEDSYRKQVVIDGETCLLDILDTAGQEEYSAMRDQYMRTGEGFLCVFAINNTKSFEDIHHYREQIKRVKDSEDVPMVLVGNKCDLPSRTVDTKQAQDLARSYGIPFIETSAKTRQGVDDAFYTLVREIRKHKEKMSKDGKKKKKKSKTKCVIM

Structure (SMILES): Fc1c(-c2cccc3cccc(Cl)c23)ncc2c(N3C[C@H]4CC[C@@H](C3)N4)nc(OCCc3cccnc3)nc12 [Example 113, 4-((1R,5S)-3,8-diazabicyclo[3.2.1]octan-3-yl)-7-(8-chloronaphthalen-1-yl)-8-fluoro-2-(2-(pyridin-3-yl)ethoxy)pyrido[4,3-d]pyrimidine]
- IC50 (KRas G12D [1]): 2870 nM
- Kd (KRas G12D [2]): 2500 nM

Structure (SMILES): Cn1ccnc1CCOc1nc(N2C[C@H]3CC[C@@H](C2)N3)c2cnc(-c3cccc4cccc(Cl)c34)c(F)c2n1 [Example 114, 4-((I R,5S)-3,8-diazabicyclo[3.2.1]octan-3-yl)-7-(8-chloronaphthalen-1-yl)-8-fluoro-2-(2-(1-methyl-1H-imidazol-2-yl)ethoxy)pyrido[4,3-d]pyrimidine]
- IC50 (KRas G12D [1]): 482 nM
- Kd (KRas G12D [2]): 384 nM

Structure (SMILES): CN1C[C@H](F)C[C@H]1COc1nc(N2C[C@H]3CC[C@@H](C2)N3)c2cnc(-c3cccc4cccc(Cl)c34)c(F)c2n1 [Example 115, 4-((1R,5S)-3,8-diazabicyclo[3.2.1]octan-3-yl)-7-(8-chloronaphthalen-1-yl)-8-fluoro-2-(((2S,4R)-4-fluoro-1-methylpyrrolidin-2-yl)methoxy)pyrido[4,3-d]pyrimidine]
- IC50 (KRas G12D [1]): 174 nM
- Kd (KRas G12D [2]): 333000 nM

Structure (SMILES): Cc1cccc2cccc(-c3cc4nc(OC[C@@H]5CCCN5C)nc(N5C[C@H]6CC[C@@H](C5)N6)c4cn3)c12 [Example 116, 4-((1R,5S)-3,8-diazabicyclo[3.2.1]octan-3-yl)-7-(8-methylnaphthalen-1-yl)-2-(((S)-1-methylpyrrolidin-2-yl)methoxy)pyrido[4,3-d]pyrimidine]
- IC50 (KRas G12D [1]): 1440 nM
- Kd (KRas G12D [2]): 3630 nM

Structure (SMILES): CN1CCC[C@H]1COc1nc(N2C[C@H]3CC[C@@H](C2)N3)c2cnc(-c3cccc4cccc(CCC#N)c34)c(F)c2n1 [Example 117, 3-(8-(4-((1R,5S)-3,8-diazabicyclo[3.2.1]octan-3-yl)-8-fluoro-2-(((S)-1-methylpyrrolidin-2-yl)methoxy)pyrido[4,3-d]pyrimidin-7-yl)naphthalen-1-yl)propanenitrile bis(2,2,2-trifluoroacetate)]
- IC50 (KRas G12D [1]): 732 nM
- Kd (KRas G12D [2]): 1000 nM

Structure (SMILES): Oc1cc(-c2ncc3c(N4C[C@H]5CC[C@@H](C4)N5)nc(N4CCCC4)nc3c2F)c2ccccc2c1 [Example 118, 4-(4-((1R,5S)-3,8-diazabicyclo[3.2.1]octan-3-yl)-8-fluoro-2-(pyrrolidin-1-yl)pyrido[4,3-d]pyrimidin-7-yl)naphthalen-2-ol 2,2,2-trifluoroacetate]
- IC50 (KRas G12D [1]): 477 nM
- Kd (KRas G12D [2]): 1060 nM

Structure (SMILES): Oc1cc(-c2ncc3c(N4C[C@H]5CC[C@@H](C4)N5)nc(N4CCC4)nc3c2F)c2ccccc2c1 [Example 119, 4-(2-(azetidin-1-yl)-4-((1R,5S)-3,8-diazabicyclo[3.2.1]octan-3-yl)-8-fluoropyrido[4,3-d]pyrimidin-7-yl)naphthalen-2-ol 2,2,2-trifluoroacetate]
- IC50 (KRas G12D [1]): 684 nM
- Kd (KRas G12D [2]): 511 nM

Structure (SMILES): CN(C)C1CN(c2nc(N3C[C@H]4CC[C@@H](C3)N4)c3cnc(-c4cc(O)cc5ccccc45)c(F)c3n2)C1 [Example 120, 4-(4-((1R,5S)-3,8-diazabicyclo[3.2.1]octan-3-yl)-2-(3-(dimethylamino)azetidin-1-yl)-8-fluoropyrido[4,3-d]pyrimidin-7-yl)naphthalen-2-ol bis(2,2,2-trifluoroacetate)]
- IC50 (KRas G12D [1]): 28.8 nM
- Kd (KRas G12D [2]): 42.1 nM

Structure (SMILES): OC[C@@H]1CCN1c1nc(N2C[C@H]3CC[C@@H](C2)N3)c2cnc(-c3cc(O)cc4ccccc34)c(F)c2n1 [Example 121, 4-(4-((1R,5S)-3,8-diazabicyclo[3.2.1]octan-3-yl)-8-fluoro-2-((S)-2-(hydroxymethyl)azetidin-1-yl)pyrido[4,3-d]pyrimidin-7-yl)naphthalen-2-ol 2,2,2-trifluoroacetate]
- IC50 (KRas G12D [1]): 204 nM
- Kd (KRas G12D [2]): 197 nM

Structure (SMILES): CN(C)C1CN(c2nc(N3C[C@H]4CC[C@@H](C3)N4)c3cnc(-c4cccc5cccc(Cl)c45)c(F)c3n2)C1 [Example 122, 1-(4-((1R,5S)-3,8-diazabicyclo[3.2.1]octan-3-yl)-7-(8-chloronaphthalen-1-yl)-8-fluoropyrido[4,3-d]pyrimidin-2-yl)-N,N-dimethylazetidin-3-amine]
- IC50 (KRas G12D [1]): 3270 nM
- Kd (KRas G12D [2]): 3420 nM

Structure (SMILES): CN1CCC[C@H]1COc1nc(N2C[C@H]3CC[C@@H](C2)N3)c2cnc(-c3cccc4cccc(Cl)c34)cc2n1 [Example 123, 4-((1R,5S)-3,8-diazabicyclo[3.2.1]octan-3-yl)-7-(8-chloronaphthalen-1-yl)-2-(((S)-1-methylpyrrolidin-2-yl)methoxy)pyrido[4,3-d]pyrimidine]
- IC50 (KRas G12D [1]): 754 nM
- Kd (KRas G12D [2]): 786 nM

Structure (SMILES): CC1(N)CN(c2nc(N3C[C@H]4CC[C@@H](C3)N4)c3cnc(-c4cc(O)cc5ccccc45)c(F)c3n2)C1 [Example 124, 4-(2-(3-amino-3-methylazetidin-1-yl)-4-((1R,5S)-3,8-diazabicyclo[3.2.1]octan-3-yl)-8-fluoropyrido[4,3-d]pyrimidin-7-yl)naphthalen-2-ol]
- IC50 (KRas G12D [1]): 8.6 nM
- Kd (KRas G12D [2]): 22.7 nM

Structure (SMILES): CCC1(N)CN(c2nc(N3C[C@H]4CC[C@@H](C3)N4)c3cnc(-c4cc(O)cc5ccccc45)c(F)c3n2)C1 [Example 126, 4-(2-(3-amino-3-ethylazetidin-1-yl)-4-((1R,5S)-3,8-diazabicyclo[3.2.1]octan-3-yl)-8-fluoropyrido[4,3-d]pyrimidin-7-yl)naphthalen-2-ol]
- IC50 (KRas G12D [1]): 9.9 nM
- Kd (KRas G12D [2]): 16.1 nM

Structure (SMILES): CN(C)C1(C)CN(c2nc(N3C[C@H]4CC[C@@H](C3)N4)c3cnc(-c4cccc5cccc(Cl)c45)c(F)c3n2)C1 [Example 127, 1-(4-((1R,5S)-3,8-diazabicyclo[3.2.1]octan-3-yl)-7-(8-chloronaphthalen-1-yl)-8-fluoropyrido[4,3-d]pyrimidin-2-yl)-N,N,3-trimethylazetidin-3-amine]
- IC50 (KRas G12D [1]): 251 nM
- Kd (KRas G12D [2]): 864 nM

Structure (SMILES): CN1CC(COc2nc(N3C[C@H]4CC[C@@H](C3)N4)c3cnc(-c4cccc5cccc(Cl)c45)c(F)c3n2)CC1=O (stereo partly drawn) [Example 131, 4-(((4-((1R,5S)-3,8-diazabicyclo[3.2.1]octan-3-yl)-7-(8-chloronaphthalen-1-yl)-8-fluoropyrido[4,3-d]pyrimidin-2-yl)oxy)methyl)-1-methylpyrrolidin-2-one]
- IC50 (KRas G12D [1]): 424 nM
- Kd (KRas G12D [2]): 1550 nM

Structure (SMILES): CN1CCC[C@H]1COc1nc(N2C[C@H]3CC[C@@H](C2)N3)c2cnc(-c3cccc4cccc(Cl)c34)c(F)c2n1 [Example 132, 4-((1R,5S)-3,8-diazabicyclo[3.2.1]octan-3-yl)-7-(8-chloronaphthalen-1-yl)-8-fluoro-2-(((S)-1-methylpyrrolidin-2-yl)methoxy)pyrido[4,3-d]pyrimidine]
- IC50 (KRas G12D [1]): 60.5 nM
- Kd (KRas G12D [2]): 64.7 nM

Structure (SMILES): CC1CCCc2cccc(-c3ncc4c(N5CC6CCC(C5)N6)nc(OC[C@@H]5CCCN5C)nc4c3F)c21 (stereo partly drawn) [Example 133, 4-((I R,5S)-3,8-diazabicyclo[3.2.1]octan-3-yl)-8-fluoro-7-(8-methyl-5,6,7,8-tetrahydronaphthalen-1-yl)-2-(((S)-1-methylpyrrolidin-2-yl)methoxy)pyrido[4,3-d]pyrimidine]
- IC50 (KRas G12D [1]): 48.8 nM
- Kd (KRas G12D [2]): 113 nM

Structure (SMILES): Nc1cccc(CCOc2nc(N3C[C@H]4CC[C@@H](C3)N4)c3cnc(-c4cc(O)cc5ccccc45)c(F)c3n2)n1 [Example 139, 4-(2-(2-(6-aminopyridin-2-yl)ethoxy)-4-((1R,5S)-3,8-diazabicyclo[3.2.1]octan-3-yl)-8-fluoropyrido[4,3-d]pyrimidin-7-yl)naphthalen-2-ol]
- IC50 (KRas G12D [1]): 113 nM
- Kd (KRas G12D [2]): 25.4 nM

Structure (SMILES): Fc1c(-c2cccc3cccc(Cl)c23)ncc2c(N3C[C@H]4CC[C@@H](C3)N4)nc(OC3CCc4[nH]ncc4C3)nc12 (stereo partly drawn) [Example 142, 4-((1R,5S)-3,8-diazabicyclo[3.2.1]octan-3-yl)-7-(8-chloronaphthalen-1-yl)-8-fluoro-2-((4,5,6,7-tetrahydro-1H-indazol-5-yl)oxy)pyrido[4,3-d]pyrimidine]
- IC50 (KRas G12D [1]): 8850 nM
- Kd (KRas G12D [2]): 13800 nM

Structure (SMILES): Fc1c(-c2cccc3cccc(Cl)c23)ncc2c(N3C[C@H]4CC[C@@H](C3)N4)nc(OC3CCc4cn[nH]c4C3)nc12 (stereo partly drawn) [Example 143, 4-((1R,5S)-3,8-diazabicyclo[3.2.1]octan-3-yl)-7-(8-chloronaphthalen-1-yl)-8-fluoro-2-((4,5,6,7-tetrahydro-1H-indazol-6-yl)oxy)pyrido[4,3-d]pyrimidine]
- IC50 (KRas G12D [1]): 4560 nM
- Kd (KRas G12D [2]): 14900 nM

Structure (SMILES): Fc1c(-c2cccc3cccc(Cl)c23)ncc2c(N3C[C@H]4CC[C@@H](C3)N4)nc(OCCn3cccn3)nc12 [Example 147, 2-(2-(1H-pyrazol-1-yl)ethoxy)-4-((1R,5S)-3,8-diazabicyclo[3.2.1]octan-3-yl)-7-(8-chloronaphthalen-1-yl)-8-fluoropyrido[4,3-d]pyrimidine]
- IC50 (KRas G12D [1]): 5880 nM
- Kd (KRas G12D [2]): 18800 nM

Structure (SMILES): CN1CCC[C@H]1COc1nc(N2C[C@H]3CC[C@@H](C2)N3)c2cnc(-c3cncc4cccc(Cl)c34)c(F)c2n1 [Example 151, 4-((1R,5S)-3,8-diazabicyclo[3.2.1]octan-3-yl)-7-(5-chloroisoquinolin-4-yl)-8-fluoro-2-(((S)-1-methylpyrrolidin-2-yl)methoxy)pyrido[4,3-d]pyrimidine]
- IC50 (KRas G12D [1]): 388 nM
- Kd (KRas G12D [2]): 448 nM

Structure (SMILES): CN1CCC[C@H]1COc1nc(N2CC3CCC(C)(C2)N3)c2cnc(-c3cc(O)cc4ccccc34)c(F)c2n1 (stereo partly drawn) [Example 156, 4-(8-fluoro-4-(1-methyl-3,8-diazabicyclo[3.2.1]octan-3-yl)-2-(((S)-1-methylpyrrolidin-2-yl)methoxy)pyrido[4,3-d]pyrimidin-7-yl)naphthalen-2-ol bis(2,2,2-trifluoroacetate)]
- IC50 (KRas G12D [1]): 9.1 nM
- Kd (KRas G12D [2]): 500000 nM
